Data from the NIST ThermoML archive (doi:10.1021/je7004374).
± gives the expanded uncertainty stated by the source.

Key:
[1] = Liquid; for speed of sound: Sing-around technique in a fixed-path interferometer
[2] = refractive index (Na D-line) (dimensionless); conditions: 298.15 K; 101.33 kPa; Liquid; Standard Abbe refractometry

SMILES: OCCCO [propan-1,3-diol]
- speed of sound ([1]; 308.15 K, 15200 kPa): 1646.6 ± 2.4 m/s
- mass density ([1]; 308.15 K, 20000 kPa): 1051.94 ± 0.95 kg/m3
- mass density ([1]; 308.15 K, 30000 kPa): 1055.93 ± 1.2 kg/m3
- speed of sound ([1]; 308.15 K, 30390 kPa): 1688.4 ± 2.4 m/s
- mass density ([1]; 308.15 K, 40000 kPa): 1059.79 ± 1.4 kg/m3
- speed of sound ([1]; 308.15 K, 45590 kPa): 1728.4 ± 2.4 m/s
- mass density ([1]; 308.15 K, 50000 kPa): 1063.54 ± 1.6 kg/m3
- mass density ([1]; 308.15 K, 60000 kPa): 1067.17 ± 1.9 kg/m3
- speed of sound ([1]; 308.15 K, 60790 kPa): 1766 ± 2.4 m/s
- mass density ([1]; 308.15 K, 70000 kPa): 1070.71 ± 2.2 kg/m3
- speed of sound ([1]; 308.15 K, 75990 kPa): 1802 ± 2.4 m/s
- mass density ([1]; 308.15 K, 80000 kPa): 1074.14 ± 2.5 kg/m3
- mass density ([1]; 308.15 K, 90000 kPa): 1077.49 ± 2.9 kg/m3
- speed of sound ([1]; 308.15 K, 91180 kPa): 1836.6 ± 2.5 m/s
- mass density ([1]; 308.15 K, 100000 kPa): 1080.76 ± 3.2 kg/m3
- speed of sound ([1]; 308.15 K, 101320 kPa): 1858.8 ± 2.5 m/s
- mass density ([1]; 308.16 K, 101.33 kPa): 1043.52 ± 0.6 kg/m3
- speed of sound ([1]; 313.12 K, 100 kPa): 1590.5 ± 1.8 m/s
- speed of sound ([1]; 313.12 K, 91180 kPa): 1827.4 ± 2.5 m/s
- speed of sound ([1]; 313.12 K, 101320 kPa): 1849.7 ± 2.5 m/s
- speed of sound ([1]; 313.13 K, 30390 kPa): 1678 ± 2.4 m/s
- speed of sound ([1]; 313.13 K, 45590 kPa): 1718.2 ± 2.4 m/s
- speed of sound ([1]; 313.13 K, 60790 kPa): 1756.4 ± 2.4 m/s
- speed of sound ([1]; 313.13 K, 75990 kPa): 1792.6 ± 2.4 m/s
- speed of sound ([1]; 313.14 K, 15200 kPa): 1635.8 ± 2.4 m/s
- mass density ([1]; 313.15 K, 100 kPa): 1040.39 ± 0.59 kg/m3
- mass density ([1]; 313.15 K, 101.33 kPa): 1040.36 ± 0.59 kg/m3
- speed of sound ([1]; 313.15 K, 101.33 kPa): 1590.5 ± 1.8 m/s
- mass density ([1]; 313.15 K, 10000 kPa): 1044.7 ± 0.74 kg/m3
- mass density ([1]; 313.15 K, 20000 kPa): 1048.89 ± 0.92 kg/m3
- mass density ([1]; 313.15 K, 30000 kPa): 1052.94 ± 1.1 kg/m3
- mass density ([1]; 313.15 K, 40000 kPa): 1056.85 ± 1.4 kg/m3
- mass density ([1]; 313.15 K, 50000 kPa): 1060.65 ± 1.6 kg/m3
- mass density ([1]; 313.15 K, 60000 kPa): 1064.33 ± 1.9 kg/m3
- mass density ([1]; 313.15 K, 70000 kPa): 1067.9 ± 2.2 kg/m3
- mass density ([1]; 313.15 K, 80000 kPa): 1071.38 ± 2.5 kg/m3
- mass density ([1]; 313.15 K, 90000 kPa): 1074.77 ± 2.8 kg/m3
- mass density ([1]; 313.15 K, 100000 kPa): 1078.07 ± 3.1 kg/m3
- mass density ([1]; 318.15 K, 100 kPa): 1037.21 ± 0.58 kg/m3
- mass density ([1]; 318.15 K, 101.33 kPa): 1037.19 ± 0.58 kg/m3
- speed of sound ([1]; 318.15 K, 101.33 kPa): 1579.2 ± 1.8 m/s
- mass density ([1]; 318.15 K, 10000 kPa): 1041.57 ± 0.72 kg/m3
- mass density ([1]; 318.15 K, 20000 kPa): 1045.83 ± 0.89 kg/m3
- mass density ([1]; 318.15 K, 30000 kPa): 1049.93 ± 1.1 kg/m3
- mass density ([1]; 318.15 K, 40000 kPa): 1053.9 ± 1.3 kg/m3
- mass density ([1]; 318.15 K, 50000 kPa): 1057.74 ± 1.5 kg/m3
- mass density ([1]; 318.15 K, 60000 kPa): 1061.47 ± 1.8 kg/m3
- mass density ([1]; 318.15 K, 70000 kPa): 1065.09 ± 2.1 kg/m3
- mass density ([1]; 318.15 K, 80000 kPa): 1068.61 ± 2.4 kg/m3
- mass density ([1]; 318.15 K, 90000 kPa): 1072.03 ± 2.7 kg/m3
- mass density ([1]; 318.15 K, 100000 kPa): 1075.37 ± 3 kg/m3
- speed of sound ([1]; 318.3 K, 100 kPa): 1578.9 ± 1.8 m/s
- speed of sound ([1]; 318.31 K, 30390 kPa): 1667.3 ± 2.4 m/s
- speed of sound ([1]; 318.31 K, 45590 kPa): 1708 ± 2.4 m/s
- speed of sound ([1]; 318.31 K, 60790 kPa): 1746.3 ± 2.4 m/s
- speed of sound ([1]; 318.31 K, 75990 kPa): 1783.1 ± 2.4 m/s
- speed of sound ([1]; 318.31 K, 91180 kPa): 1818 ± 2.5 m/s
- speed of sound ([1]; 318.31 K, 101320 kPa): 1840.6 ± 2.5 m/s
- speed of sound ([1]; 318.32 K, 15200 kPa): 1624.6 ± 2.4 m/s
- mass density ([1]; 323.15 K, 101.33 kPa): 1034 ± 0.57 kg/m3
- mass density ([1]; 328.16 K, 101.33 kPa): 1030.79 ± 0.56 kg/m3
- mass density ([1]; 333.15 K, 101.33 kPa): 1027.56 ± 0.55 kg/m3
- mass density ([1]; 338.15 K, 101.33 kPa): 1024.3 ± 0.54 kg/m3
- mass density ([1]; 343.15 K, 101.33 kPa): 1021.01 ± 0.53 kg/m3
- mass density ([1]; 348.15 K, 101.33 kPa): 1017.69 ± 0.52 kg/m3
- mass density ([1]; 353.15 K, 101.33 kPa): 1014.34 ± 0.5 kg/m3
- mass density ([1]; 358.15 K, 101.33 kPa): 1010.96 ± 0.49 kg/m3
- mass density ([1]; 363.15 K, 101.33 kPa): 1007.54 ± 0.48 kg/m3
- refractive index [2]: 1.438 ± 0.0008
